Laboratory results: ChEMBL document CHEMBL6178015, “Discovery of a Novel Serine-Targeting Covalent Inhibitor against HCES2A for Treating Drug-induced Diarrhea and Ulcerative Colitis” (J Med Chem, 2025)
pIC50, pKi: −log10 of the molar value. Blank lines part the entries; values can stand above or below the compound they belong to. Calls of active or inactive are those of the source. The calls are words filed in the database; no cut-off is given here.

Assays:
[1] = Inhibition of human CES2A using fluorescein diacetate as substrate preincubated for 3 mins followed by substrate addition and measured after 30 mins by fluorescence microplate reader
[2] = system: Mus musculus; assay: Antiinflammatory activity against DSS-induced ulcerative colitis mouse model assessed as restoration of colon histology at 700 mg/kg,IG administered once daily 7 days by AB-PAS staining based analysis; assay type: functional, organism-based; settings: time 7.0 day
[3] = system: Mus musculus; assay: Antiinflammatory activity against DSS-induced ulcerative colitis mouse model assessed as epithelial damage at 700 mg/kg,IG administered once daily 7 days by AB-PAS staining based analysis; assay type: functional, organism-based; settings: time 7.0 day
[4] = system: Mus musculus; assay: Antiinflammatory activity against DSS-induced ulcerative colitis mouse model assessed as goblet cell loss at 700 mg/kg,IG administered once daily 7 days by AB-PAS staining based analysis; assay type: functional, organism-based; settings: time 7.0 day
[5] = system: Mus musculus; assay: Antiinflammatory activity against DSS-induced ulcerative colitis mouse model assessed as decrease in DAI score at 30 to 60 mg/kg,IG administered once daily 7 days; assay type: functional, organism-based; settings: dose 30-60 mg/kg, time 7.0 day
[6] = species: Homo sapiens; assay: Selectivity index, ratio of IC50 for inhibition of human CES1A to IC50 for inhibition of human CES2A
[7] = system: Mus musculus; assay: Antiinflammatory activity against DSS-induced ulcerative colitis mouse model assessed as reduction in crypt destruction in colon tissues at 30 to 60 mg/kg,IG administered once daily 7 days by H and E staining based analysis; assay type: functional, organism-based; settings: dose 30-60 mg/kg, time 7.0 day
[8] = system: Mus musculus; assay: Reversal of irinotecan-induced gut toxicity in C57BL/6J mouse bearing MC38 cells assessed as effect on tumor volume at 30 to 60 mg/kg,po administered daily and measured after 14 days; assay type: functional, organism-based; settings: dose 30-60 mg/kg, time 14.0 day
[9] = system: Mus musculus; assay: Antiinflammatory activity against DSS-induced ulcerative colitis mouse model assessed as alleviation in body weight loss at 30 to 60 mg/kg,IG administered once daily 7 days; assay type: functional, organism-based; settings: dose 30-60 mg/kg, time 7.0 day
[10] = Irreversible inhibition of human CES2A using fluorescein diacetate as substrate preincubated for 33 mins followed by substrate addition by fluorescence microplate reader
[11] = system: Mus musculus; assay: Antiinflammatory activity against DSS-induced ulcerative colitis mouse model assessed as restoration of IL-6 levels in colon tissues at 30 to 60 mg/kg,IG administered once daily 7 days by ELISA; assay type: functional, organism-based; settings: dose 30-60 mg/kg, time 7.0 day
[12] = species: Homo sapiens; assay: Irreversible inhibition of human CES2A at 0.02 nM preincubated for 33 mins and measured after 8 hrs dialysis by fluorescence microplate reader; settings: time 513.0 min
[13] = system: Mus musculus; assay: Antiinflammatory activity against DSS-induced ulcerative colitis mouse model assessed as upregulation of ZO-1 expression in colon tissues at 700 mg/kg,IG administered once daily 7 days by immunohistochemical analysis; assay type: functional, organism-based; settings: time 7.0 day
[14] = system: Mus musculus; assay: Reversal of irinotecan-induced gut toxicity in C57BL/6J mouse bearing MC38 cells assessed as amelioration of epithelial crypts loss at 30 to 60 mg/kg,po administered daily and measured after 14 days by H and E staining based analysis; assay type: functional, organism-based; settings: dose 30-60 mg/kg, time 14.0 day
[15] = system: Mus musculus; assay: Antiinflammatory activity against DSS-induced ulcerative colitis mouse model assessed as upregulation of claudin-1 expression in colon tissues at 700 mg/kg,IG administered once daily 7 days by immunohistochemical analysis; assay type: functional, organism-based; settings: time 7.0 day
[16] = Irreversible inhibition of human CES2A using fluorescein diacetate as substrate preincubated for 3 mins followed by substrate addition by fluorescence microplate reader
[17] = system: Mus musculus; assay: Reversal of irinotecan-induced gut toxicity in C57BL/6J mouse bearing MC38 cells assessed as weight recovery at 30 to 60 mg/kg,po administered daily and measured after 14 days; assay type: functional, organism-based; settings: dose 30-60 mg/kg, time 14.0 day
[18] = system: Mus musculus; assay: Reversal of irinotecan-induced gut toxicity in C57BL/6J mouse bearing MC38 cells assessed as amelioration of inflammatory cell infiltration loss at 30 to 60 mg/kg,po administered daily and measured after 14 days by H and E staining based analysis; assay type: functional, organism-based; settings: dose 30-60 mg/kg, time 14.0 day
[19] = system: Mus musculus; assay: Reversal of irinotecan-induced gut toxicity in C57BL/6J mouse bearing MC38 cells assessed as increase in claudin-1 expression level in colon tissues at 30 to 60 mg/kg,po administered daily and measured after 14 days by immunohistochemical analysis; assay type: functional, organism-based; settings: dose 30-60 mg/kg, time 14.0 day
[20] = biological target: Voltage-gated inwardly rectifying potassium channel KCNH2 (Homo sapiens, UniProt Q12809); assay: Inhibition of hERG expressed in HEK293 cells; assay type: toxicity, cell-based
Sequence of Voltage-gated inwardly rectifying potassium channel KCNH2 (Q12809 whole entry): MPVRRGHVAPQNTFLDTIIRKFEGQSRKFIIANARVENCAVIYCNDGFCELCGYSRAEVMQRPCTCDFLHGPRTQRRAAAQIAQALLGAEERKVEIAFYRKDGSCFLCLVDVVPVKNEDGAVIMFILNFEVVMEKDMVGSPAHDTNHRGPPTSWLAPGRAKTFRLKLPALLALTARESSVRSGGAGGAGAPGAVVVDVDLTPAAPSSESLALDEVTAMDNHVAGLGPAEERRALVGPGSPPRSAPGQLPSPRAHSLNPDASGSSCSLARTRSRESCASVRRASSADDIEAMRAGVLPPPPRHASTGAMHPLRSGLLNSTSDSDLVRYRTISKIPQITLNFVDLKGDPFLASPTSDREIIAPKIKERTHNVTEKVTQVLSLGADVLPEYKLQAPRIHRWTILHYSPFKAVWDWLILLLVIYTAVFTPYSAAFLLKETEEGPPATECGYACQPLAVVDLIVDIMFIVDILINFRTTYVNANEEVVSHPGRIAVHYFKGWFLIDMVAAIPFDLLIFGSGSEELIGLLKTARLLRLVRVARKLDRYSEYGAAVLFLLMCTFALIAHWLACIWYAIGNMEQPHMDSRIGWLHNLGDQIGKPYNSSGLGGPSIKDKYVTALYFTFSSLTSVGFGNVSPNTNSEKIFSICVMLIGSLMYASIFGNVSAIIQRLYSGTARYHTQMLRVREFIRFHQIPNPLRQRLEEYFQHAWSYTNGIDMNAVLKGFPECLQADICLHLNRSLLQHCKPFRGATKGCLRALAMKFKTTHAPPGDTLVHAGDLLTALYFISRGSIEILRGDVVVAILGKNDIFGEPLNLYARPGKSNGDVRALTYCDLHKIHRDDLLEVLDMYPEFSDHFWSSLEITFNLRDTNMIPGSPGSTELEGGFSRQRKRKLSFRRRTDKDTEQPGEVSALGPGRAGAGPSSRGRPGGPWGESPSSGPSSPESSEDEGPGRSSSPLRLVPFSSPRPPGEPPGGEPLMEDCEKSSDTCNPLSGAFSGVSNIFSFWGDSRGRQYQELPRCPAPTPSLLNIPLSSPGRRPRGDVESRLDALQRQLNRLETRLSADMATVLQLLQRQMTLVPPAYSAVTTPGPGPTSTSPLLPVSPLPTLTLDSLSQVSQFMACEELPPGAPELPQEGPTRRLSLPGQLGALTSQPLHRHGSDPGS

[21] = system: Mus musculus; assay: Reversal of irinotecan-induced gut toxicity in C57BL/6J mouse bearing MC38 cells assessed as reduction in colon shortening at 30 to 60 mg/kg,po administered daily and measured after 14 days; assay type: functional, organism-based; settings: dose 30-60 mg/kg, time 14.0 day
[22] = system: Mus musculus; assay: Antiinflammatory activity against DSS-induced ulcerative colitis mouse model assessed as reduction in inflammatory infiltration in lamina propria at 30 to 60 mg/kg,IG administered once daily 7 days by H and E staining based analysis; assay type: functional, organism-based; settings: dose 30-60 mg/kg, time 7.0 day
[23] = system: Mus musculus; assay: Reversal of irinotecan-induced gut toxicity in C57BL/6J mouse bearing MC38 cells assessed as change in tumor size at 30 to 60 mg/kg,po administered daily and measured after 14 days; assay type: functional, organism-based; settings: dose 30-60 mg/kg, time 14.0 day
[24] = system: Mus musculus; assay: Reversal of irinotecan-induced gut toxicity in C57BL/6J mouse bearing MC38 cells assessed as increase in ZO-1 expression level in colon tissues at 30 to 60 mg/kg,po administered daily and measured after 14 days by immunohistochemical analysis; assay type: functional, organism-based; settings: dose 30-60 mg/kg, time 14.0 day
[25] = Inhibition of human CES2A in HepG2 cells incubated for 1 hrs by NCEN and Hoechst 33342 staining based assay; assay type: cell-based
[26] = system: Mus musculus; assay: Reversal of irinotecan-induced gut toxicity in C57BL/6J mouse bearing MC38 cells assessed as reduction in diarrhea at 30 to 60 mg/kg,po administered daily and measured after 14 days; assay type: functional, organism-based; settings: dose 30-60 mg/kg, time 14.0 day
[27] = system: Mus musculus; assay: Antiinflammatory activity against DSS-induced ulcerative colitis mouse model assessed as inhibition of colon contracture at 30 to 60 mg/kg,IG administered once daily 7 days; assay type: functional, organism-based; settings: dose 30-60 mg/kg, time 7.0 day
[28] = system: Mus musculus; assay: Antiinflammatory activity against DSS-induced ulcerative colitis mouse model assessed as upregulation of occludin expression in colon tissues at 700 mg/kg,IG administered once daily 7 days by immunohistochemical analysis; assay type: functional, organism-based; settings: time 7.0 day
[29] = system: Mus musculus; assay: Reversal of irinotecan-induced gut toxicity in C57BL/6J mouse bearing MC38 cells assessed as effect on tumor weight at 30 to 60 mg/kg,po administered daily and measured after 14 days; assay type: functional, organism-based; settings: dose 30-60 mg/kg, time 14.0 day
[30] = species: Homo sapiens; assay: Potency index, ratio of LC-20W IC50 to test compound IC50 for inhibition of human CES2A using fluorescein diacetate as substrate
[31] = system: Mus musculus; assay: Reversal of irinotecan-induced gut toxicity in C57BL/6J mouse bearing MC38 cells assessed as restoration of TNF-alpha levels in colon tissues at 30 to 60 mg/kg,po administered daily and measured after 14 days by ELISA; assay type: functional, organism-based; settings: dose 30-60 mg/kg, time 14.0 day
[32] = system: HepG2; assay: Inhibition of human CES2A in HepG2 cells assessed as decrease in green fluorescence at 5 to 60 nM incubated for 1 hrs by NCEN and Hoechst 33342 staining based assay; assay type: cell-based; settings: dose 5-60 nM
[33] = species: Homo sapiens; assay: Irreversible inhibition of human CES2A assessed as inactivation constant incubated for 5 to 30 mins; settings: time 5-30 min
[34] = system: Mus musculus; assay: Antiinflammatory activity against DSS-induced ulcerative colitis mouse model assessed as preservation of colonic mucosal structure at 30 to 60 mg/kg,IG administered once daily 7 days by H and E staining based analysis; assay type: functional, organism-based; settings: dose 30-60 mg/kg, time 7.0 day
[35] = system: Mus musculus; assay: Reversal of irinotecan-induced gut toxicity in C57BL/6J mouse bearing MC38 cells assessed as restoration of IL-1beta levels in colon tissues at 30 to 60 mg/kg,po administered daily and measured after 14 days by ELISA; assay type: functional, organism-based; settings: dose 30-60 mg/kg, time 14.0 day
[36] = system: Mus musculus; assay: Reversal of irinotecan-induced gut toxicity in C57BL/6J mouse bearing MC38 cells assessed as restoration of IL-6 levels in colon tissues at 30 to 60 mg/kg,po administered daily and measured after 14 days by ELISA; assay type: functional, organism-based; settings: dose 30-60 mg/kg, time 14.0 day
[37] = Irreversible inhibition of human CES2A assessed as inhibition constant incubated for 5 to 30 mins
[38] = system: Mus musculus; assay: Antiinflammatory activity against DSS-induced ulcerative colitis mouse model assessed as restoration of IL-1beta levels in colon tissues at 30 to 60 mg/kg,IG administered once daily 7 days by ELISA; assay type: functional, organism-based; settings: dose 30-60 mg/kg, time 7.0 day
[39] = Inhibition of human CES1A using NLMe as substrate preincubated for 3 mins followed by substrate addition and measured after 20 mins by chemiluminescence analysis
[40] = system: Mus musculus; assay: Reversal of irinotecan-induced gut toxicity in C57BL/6J mouse bearing MC38 cells assessed as amelioration of goblet cell apoptosis at 30 to 60 mg/kg,po administered daily and measured after 14 days by H and E staining based analysis; assay type: functional, organism-based; settings: dose 30-60 mg/kg, time 14.0 day
[41] = biological target: hERG (KCNH2) (Homo sapiens, UniProt Q12809); assay: Inhibition of hERG expressed in HEK293 cells at 10 uM relative to control; assay type: toxicity, cell-based; settings: HEK293 cells that express hERG
Sequence of hERG (KCNH2) (Q12809 whole entry): as above

[42] = system: Mus musculus; assay: Antiinflammatory activity against DSS-induced ulcerative colitis mouse model assessed as restoration of TNF-alpha levels in colon tissues at 30 to 60 mg/kg,IG administered once daily 7 days by ELISA; assay type: functional, organism-based; settings: dose 30-60 mg/kg, time 7.0 day

Structure (SMILES): O=C(O)c1cc(/N=N/c2ccc(S(=O)(=O)Nc3ccccn3)cc2)ccc1O
- Activity [2]: Active
- Activity [3]: inactive
- Activity [4]: inactive

Structure (SMILES): CCCCCCC(=O)c1cccc2oc(-c3cc(C)ccc3NC(=O)OCC3c4ccccc4-c4ccccc43)cc12
- pIC50 [1]: 5.67

Structure (SMILES): CCCCCCC(=O)c1cccc2oc(-c3cc(OC)ccc3N)cc12
- pIC50 [1]: 5.70

Further lines, with some results ahead:

- pIC50 [1]: 8.20
Structure (SMILES): CCCCCCCCC(=O)c1cccc2oc(-c3cc(OC)ccc3OC(=O)N(CC)CC)cc12

- pIC50 [1]: 6.21
Structure (SMILES): CCCCCCC(=O)c1cccc2oc(-c3ccccc3NC(=O)OCc3ccccc3)cc12

- pIC50 [1]: 6.44
Structure (SMILES): CCCCCCOC(=O)Nc1ccc(C)cc1-c1cc2c(C(=O)CCCCCC)cccc2o1

- Ratio IC50 [6]: 59
- pIC50 [10]: 10.55
- inhibition [12]: Active
- pIC50 [16]: 9.92
- pIC50 [25]: 7.71
- pIC50 [1]: 9.93
- Kinact [33]: 0.052 min⁻¹
- pKi [37]: 9.37
- pIC50 [39]: 8.16
Structure (SMILES): CCCCCCCCC(=O)c1cccc2oc(-c3cc(OC)ccc3OC(=O)N3CCCC3)cc12
- Activity [5]: Active
- Activity [7]: Active
- Activity [8]: Active
- Activity [9]: Active
- Activity [11]: Active
- Activity [13]: Active
- Activity [14]: Active
- Activity [2]: Active
- Activity [15]: Active
- Activity [17]: Active
- Activity [18]: Active
- Activity [19]: Active
- pIC50 [20]: < 5.00
- Activity [21]: Active
- Activity [22]: Active
- Activity [23]: inactive
- Activity [24]: Active
- Activity [26]: Active
- Activity [27]: Active
- Activity [28]: Active
- Activity [29]: inactive
- Ratio IC50 [30]: 13
- Activity [31]: Active
- inhibition [32]: Active
- Activity [34]: Active
- Activity [35]: Active
- Activity [36]: Active
- Activity [38]: Active
- Activity [40]: Active
- inhibition at 10 µM [41]: 14.6%
- Activity [42]: Active

- pIC50 [1]: 5.90
Structure (SMILES): CCCCCCC(=O)c1cccc2oc(-c3ccccc3NC(=O)OCCCC)cc12
